Test results as given in patent publication US20140094462A1, “SONIC HEDGEHOG MODULATORS” (priority 2009, published 2014).
pKd: −log10 of the molar value.

Test system: not given
Experiment: not given
Conditions: from C=CC[C@@H](C)C(=O)OC[C@H](NC(=O)[C@@H](CC=C)O[Si](C)(C)C(C)(C)C)c1ccccc1; rcm bond; toluene

Row | Structure (SMILES) | ring closure, yield of all isomers [%]
1 | C[C@@H]1CC=CC[C@@H](O[Si](C)(C)C(C)(C)C)C(=O)N[C@H](c2ccccc2)COC1=O | 58

Target: T1, ShhN protein (Homo sapiens, UniProt Q15465)
T1 construct: auto-cleavage of full length Shh into an active 20 kD N-terminal fragment (ShhN); purchased R&D Systems
Experiment: Surface Plasmon Resonance (SPR) protein binding assay on immobilized ShhN
Conditions: SPR, Biacore T100, ShhN immobilized on CM4 chip, 25° C., compound 0.78 μM-25 μM; read-out: KD
Experimental: Biacore™ T100 (GE Healthcare, Uppsala, Sweden) was used to perform the experiments described herein. Sensor surface preparation and interaction analyses experiments were performed at 25° C.
Control surfaces were prepared similarly without protein derivatization and were utilized as a reference surfaces for compound binding experiments.
Zero concentration blank buffer cycles were included as negative control samples.
Data analysis was carried out using Biacore T100 evaluation software v1.1.1. […] Solvent correction was then applied as described previously.

T1 sequence (Q15465 24-197 limits assumed, species assumed): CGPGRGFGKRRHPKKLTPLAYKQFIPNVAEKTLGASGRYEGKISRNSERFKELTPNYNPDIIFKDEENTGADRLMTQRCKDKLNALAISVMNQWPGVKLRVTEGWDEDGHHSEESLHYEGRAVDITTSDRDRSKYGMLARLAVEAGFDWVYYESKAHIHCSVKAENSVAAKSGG

Row | Structure (SMILES) | pKd
2 | O=C(C[C@@H]1C/C=C/CCC(=O)N2CCC[C@H]2COC1=O)NCc1ccc(Cl)cc1 [FT, N-(4-chlorobenzyl)-2-((4S,14aS,E)-3,10-dioxo-3,4,5,8,9,10,12,13,14,14a-decahydro-1H-pyrrolo[2,1-c][1,4]oxaazacyclododecin-4-yl)acetamide] | 4.00 to 6.00
3 | COc1ccc(CNC(=O)C[C@@H]2C/C=C/CCC(=O)O[C@H](c3ccccc3)CNC2=O)cc1 [EQ] | 4.00 to 6.00
4 | C[C@H]1C/C=C\C[C@@H](CC(=O)NCc2ccc(Cl)cc2)C(=O)OC[C@@H](c2ccccc2)NC1=O [Example EE, N-(4-chlorobenzyl)-2-((3R,6S,11S,Z)-6-methyl-5,12-dioxo-3-phenyl-1-oxa-4-azacyclododec-8-en-11-yl)acetamide] | < 4.00
5 | CC(C)(C)OC(=O)C[C@@H]1C/C=C/CCC(=O)N[C@H](c2ccc(Cl)cc2)COC1=O [FV] | > 7.00
6 | CN1C[C@@H](c2ccccc2)OC(=O)CC/C=C/C[C@@H](Cc2ccc(Cl)cc2)C1=O [Example BR, (2R,6S,E)-6-(4-chlorobenzyl)-4-methyl-2-phenyl-1-oxa-4-azacyclododec-8-ene-5,12-dione] | < 4.00
7 | CCCC[C@@H]1COC(=O)[C@H](CC(=O)NCc2ccc(Cl)cc2)C/C=C/CCC(=O)N1 [FR, 2-((3R,11S,E)-3-butyl-5,12-dioxo-1-oxa-4-azacyclododec-8-en-11-yl)-N-(4-chlorobenzyl)acetamide] | 4.00 to 6.00
8 | C[C@@H]1C[C@H](O)[C@@H](O)CCC(=O)N[C@H](c2ccccc2)COC1=O [Example BU, (3R,8S,9S,11R)-8,9-dihydroxy-11-methyl-3-phenyl-1-oxa-4-azacyclododecane-5,12-dione] | 4.00 to 6.00
9 | O=C1CC/C=C/C[C@@H](CC(=O)N2CCN(c3ncccn3)CC2)C(=O)NC[C@@H](c2ccccc2)O1 [EU] | 4.00 to 6.00
10 | O=C(C[C@@H]1C/C=C/CCC(=O)N[C@H](c2ccccc2)COC1=O)NCC1CCOCC1 [FZ, 2-((3R,11S,E)-5,12-dioxo-3-phenyl-1-oxa-4-azacyclododec-8-en-11-yl)-N-((tetrahydro-2H-pyran-4-yl)methyl)acetamide] | 4.00 to 6.00
11 | COc1ccccc1[C@@H]1COC(=O)[C@H](CC(=O)OC(C)(C)C)C/C=C/CCC(=O)N1 [FY] | > 7.00
12 | O=C(C[C@@H]1C/C=C/CCC(=O)O[C@H](c2ccccc2)CNC1=O)NCc1ccccc1 [EN] | 4.00 to 6.00
13 | O=C(C[C@@H]1C/C=C/CCC(=O)O[C@H](c2ccccc2)CNC1=O)Nc1ccc(Cl)cc1 [EM] | 4.00 to 6.00
14 | C[C@@H]1CCCCCC(=O)OC[C@@H]2CCCN2C1=O [Example BE, (9R,14aS)-9-methyldecahydro-1H-pyrrolo[2,1-c][1,4]oxaazacyclododecine-3,10-dione] | 4.00 to 6.00
15 | O=C(C[C@@H]1C/C=C/CCC(=O)O[C@H](c2ccccc2)CNC1=O)NC(c1ccccc1)c1ccccc1 [EW] | < 4.00
16 | C[C@H]1[C@@H](c2ccccc2)OC(=O)CC/C=C/C[C@@H](CC(=O)NCCCC(F)(F)F)C(=O)N1C [Example FA, 2-((2R,3S,6S,E)-3,4-dimethyl-5,12-dioxo-2-phenyl-1-oxa-4-azacyclododec-8-en-6-yl)-N-(4,4,4-trifluorobutyl)acetamide] | < 4.00
17 | C[C@H]1[C@@H](c2ccccc2)OC(=O)CC[C@H](O)[C@@H](O)C[C@@H](CC(=O)NCc2ccc(Cl)cc2)C(=O)N1C [Example BB, N-(4-chlorobenzyl)-2-((2R,3S,6S,8S,9S)-8,9-dihydroxy-3,4-dimethyl-5,12-dioxo-2-phenyl-1-oxa-4-azacyclododecan-6-yl)acetamide] | 4.00 to 6.00
18 | O=C1CC/C=C/CCC(=O)OC[C@@H](c2ccccc2)N1 [F] | > 7.00
19 | C[C@H]1[C@@H](c2ccccc2)OC(=O)CC/C=C\C[C@@H](CC(=O)NCc2ccc(Cl)cc2)C(=O)N1C [Example EZ, N-(4-chlorobenzyl)-2-((2R,3S,6S,Z)-3,4-dimethyl-5,12-dioxo-2-phenyl-1-oxa-4-azacyclododec-8-en-6-yl)acetamide] | < 4.00
20 | CC(C)(C)OC(=O)C[C@@H]1C/C=C/CCC(=O)N[C@@H]2c3ccccc3C[C@@H]2OC1=O [FW, tert-butyl 2-((3S,10aR,15aS,E)-2,9-dioxo-2,3,4,7,8,9,10,10a,15,15a-decahydroindeno[2,1-b][1,4]oxaazacyclododecin-3-yl)acetate] | > 7.00
21 | CC(C)c1ccc(CNC(=O)C[C@@H]2C/C=C/CCC(=O)O[C@H](c3ccccc3)CNC2=O)cc1 [EJ] | 4.00 to 6.00
22 | C[C@@H]1C/C=C/C[C@@H](CC(=O)NCc2ccc(Cl)cc2)C(=O)NC[C@@H](c2ccccc2)OC1=O [Example EA, N-(4-chlorobenzyl)-2-((2R,6S,11R,E)-11-methyl-5,12-dioxo-2-phenyl-1-oxa-4-azacyclododec-8-en-6-yl)acetamide] | 6.00 to 7.00

Row | Structure (SMILES) | pKd
23 | O=C(C[C@@H]1C/C=C/CCC(=O)O[C@H](c2ccccc2)CNC1=O)NCc1ccc(Cl)c(C(F)(F)F)c1 [EK] | < 4.00
24 | N[C@H]1C/C=C/C[C@@H](CC(=O)NCc2ccc(Cl)cc2)C(=O)NC[C@@H](c2ccccc2)OC1=O [Example EB, 2-((2R,6S,11S,E)-11-amino-5,12-dioxo-2-phenyl-1-oxa-4-azacyclododec-8-en-6-yl)-N-(4-chlorobenzyl)acetamide] | 4.00 to 6.00
25 | CC(C)(C)OC(=O)C[C@@H]1C/C=C/CCC(=O)N[C@H](c2ccc(F)cc2)COC1=O [FX] | > 7.00
26 | CN(Cc1ccc(Cl)cc1)C(=O)C[C@@H]1C/C=C/CCC(=O)O[C@H](c2ccccc2)CN(C)C1=O [EP] | < 4.00
27 | CC(C)[C@@H]1COC(=O)[C@H](CC(=O)NCc2ccc(Cl)cc2)C/C=C/CCC(=O)N1 [FQ, N-(4-chlorobenzyl)-2-((3R,11S,E)-3-isopropyl-5,12-dioxo-1-oxa-4-azacyclododec-8-en-11-yl)acetamide] | 6.00 to 7.00
28 | O=C(C[C@@H]1C/C=C/C[C@H](Cc2ccccc2)C(=O)N[C@H](c2ccccc2)COC1=O)NCc1ccc(Cl)cc1 [Example ED, 2-((3R,6R,11S,E)-6-benzyl-5,12-dioxo-3-phenyl-1-oxa-4-azacyclododec-8-en-11-yl)-N-(4-chlorobenzyl)acetamide] | < 4.00
29 | CN1C[C@@H](c2ccccc2)OC(=O)CC/C=C/C[C@@H](CC(=O)NCC2CCOCC2)C1=O [Example EX, 2-((2R,6S,E)-4-methyl-5,12-dioxo-2-phenyl-1-oxa-4-azacyclododec-8-en-6-yl)-N-((tetrahydro-2H-pyran-4-yl)methyl)acetamide] | 4.00 to 6.00
30 | COc1ccccc1[C@@H]1COC(=O)[C@H](CC(=O)NCc2ccc(Cl)cc2)C/C=C/CCC(=O)N1 [Example EY, N-(4-chlorobenzyl)-2-((3R,11S,E)-3-(2-methoxyphenyl)-5,12-dioxo-1-oxa-4-azacyclododec-8-en-11-yl)acetamide] | < 4.00
31 | O=C(C[C@@H]1C/C=C/C[C@H](O)C(=O)O[C@H](c2ccccc2)CNC1=O)NCc1ccc(Cl)cc1 [Example EC, N-(4-chlorobenzyl)-2-((2R,6S,11S,E)-11-hydroxy-5,12-dioxo-2-phenyl-1-oxa-4-azacyclododec-8-en-6-yl)acetamide] | > 7.00
32 | O=C(C[C@@H]1C/C=C/CCC(=O)O[C@H](c2ccccc2)CNC1=O)NCc1cccc(Cl)c1 [EO] | < 4.00
33 | N[C@@H]1C/C=C/CCC(=O)N[C@H](c2ccccc2)COC1=O [Example AC, (3R,11R,E)-11-amino-3-phenyl-1-oxa-4-azacyclododec-8-ene-5,12-dione] | 4.00 to 6.00
34 | O=C(C[C@@H]1C/C=C/CCC(=O)O[C@H](c2ccccc2)CN(Cc2ccccc2)C1=O)NCc1ccc(Cl)cc1 [EV] | < 4.00
35 | O=C(C[C@@H]1C/C=C/CCC(=O)N[C@H](Cc2ccccc2)COC1=O)NCc1ccc(Cl)cc1 [FS, 2-((3R,11S,E)-3-benzyl-5,12-dioxo-1-oxa-4-azacyclododec-8-en-11-yl)-N-(4-chlorobenzyl)acetamide] | 4.00 to 6.00
36 | O=C(C[C@@H]1CCCCCC(=O)OC[C@@H]2CCCN2C1=O)NCc1ccc(Cl)cc1 [Example FB, N-(4-chlorobenzyl)-2-((9S,14aS)-3,10-dioxododecahydro-1H-pyrrolo[2,1-c][1,4]oxaazacyclododecin-9-yl)acetamide] | 4.00 to 6.00
37 | C[C@@H]1C/C=C/CCC(=O)N[C@@H]2c3ccccc3C[C@@H]2OC1=O [Example BV, (3R,10aR,15aS,E)-3-methyl-3,4,7,8,10,10a,15,15a-octahydroindeno[2,1-b][1,4]oxaazacyclododecine-2,9-dione] | 6.00 to 7.00
38 | CN1CCN(C(=O)C[C@@H]2C/C=C/CCC(=O)O[C@H](c3ccccc3)CNC2=O)CC1 [ET] | 4.00 to 6.00
39 | O=C(C[C@@H]1C/C=C/CCC(=O)O[C@H](c2ccccc2)CNC1=O)NCCc1ccc(Cl)cc1 [EL] | < 4.00
40 | O=C(C[C@@H]1C/C=C/CCC(=O)N[C@@H]2c3ccccc3C[C@@H]2OC1=O)NCc1ccc(Cl)cc1 [Example BJ, N-(4-chlorobenzyl)-2-((3S,10aR,15aS,E)-2,9-dioxo-2,3,4,7,8,9,10,10a,15,15a-decahydroindeno[2,1-b][1,4]oxaazacyclododecin-3-yl)acetamide] | 4.00 to 6.00
41 | C[C@@H]1NC(=O)[C@H](CC(=O)NCc2ccc(Cl)cc2)C/C=C/CCC(=O)O[C@@H]1c1ccccc1 [FP, N-(4-chlorobenzyl)-2-((2R,3S,6S,E)-3-methyl-5,12-dioxo-2-phenyl-1-oxa-4-azacyclododec-8-en-6-yl)acetamide] | < 4.00
42 | O=C(C[C@@H]1C/C=C/CCC(=O)N[C@H](C2CCCCC2)COC1=O)NCc1ccc(Cl)cc1 [FU, N-(4-chlorobenzyl)-2-((3R,11S,E)-3-cyclohexyl-5,12-dioxo-1-oxa-4-azacyclododec-8-en-11-yl)acetamide] | < 4.00
